The nature of this data set: Solubility of budesonide at room temperature. The data set is classed as physicochemical. On the procedure:
The solubility at room temperature of budesonide in water was determined to be about. 0.01 mg/ml, about 1 mg/ml in glycerin and about 10 mg/ml in propylene glycol at room temperature.

Molecules are shown by their SMILES. ≈ marks a conversion by molar mass, not a printed value. Read-outs that look alike come from different tables or passages of the source.

Regarding `CCCC1O[C@@H]2C[C@H]3[C@@H]4CCC5=CC(=O)C=C[C@]5(C)[C@H]4[C@@H](O)C[C@]3(C)[C@]2(C(=O)CO)O1` (stereo partly drawn) [budesonide, 16,17-butylidenebis(oxy)-11,21-dihydroxy-, (11β, 16α)-pregna-1,4-diene-3,20-dione], the solubility (organic solvent or mixture, glycerin, read-out: solubility in glycerin) was ~1000 µg/mL (≈ 2320 µM); the solubility (organic solvent or mixture, propylene glycol, read-out: solubility in propylene glycol) was ~10000 µg/mL (≈ 23200 µM); the solubility (water, read-out: solubility in water) was ~10 µg/mL (≈ 23.2 µM).

One may read the solubility as how much of the substance goes into solution per volume.

These data come from patent publication US12539306B2, “Mucoadhesive pharmaceutical compositions of corticosteroids” (Ferring B.V., priority 2018, dated 2026).
